Measured values as given in patent US8304539B2, “Fused heteroaryl modulators of glucocorticoid receptor, AP-1, and/or NF-κB activity and use thereof” (Bristol-Myers Squibb Company, priority 2008, dated 2012).

Tested on: AP-1
Assay: Cellular transrepression assay (AP-1 luciferase reporter in A549 cells, PMA activated)
Assay type: cell-based
Details: 7 h, 10 ng/ml PMA; for EC50: read-out: AP-1 (EC50, nM) (measured in cellular transrepression assay); for Emax: read-out: AP-1 Max % inhibition (measured in cellular transrepression assay)
Experimental: Cellular Transrepressional Assay
To measure the ability of test molecules to inhibit AP-1 induced transcriptional activity we utilized an A549 cell which was stably transfected with a plasmid containing 7×AP-1 DNA binding sites (pAP-1-Luc plasmid, Stratagene Co. La Jolla, Calif.) followed by the gene for luciferase. Cells were activated with 10 ng/ml of phorbol myristic acid (PMA) plus or minus test molecules for 7 hours. After 7 hours a luciferase reagent was added to measure luciferase enzymatic activity in the cell. After a 10 minute incubation of luciferase reagent with cells, luminescence was measured in a TopCount luminescence counter. Repression of AP-1 activity was calculated as the percentage decrease in the signal induced by PMA alone. Test molecules were analyzed in the concentration range from 0.1 nM to 40 μM. EC50s were determined by using standard curve fitting methods such as Excel fit (Microsoft Co.). An EC50 is the test molecule concentration at which there is a 50% repression of the maximal inhibition of transcription, i.e. a 50% reduction of AP-1 activity.

Compound | EC50 [nM] | Emax [%]
CC(C)(C(=O)Nc1nncs1)C1c2ccc(Cl)nc2Oc2nc(-c3ccc(C(=O)N4CCOCC4)cc3)ccc21 (centres unmarked) [Example 60] | 10.7 | 57.5
CCNC(=O)c1nnc(NC(=O)C(C)(C)[C@H]2c3ccc(C)nc3Oc3nc(-c4ccc(C(=O)N(C)CC)cc4)ccc32)s1 [Example 48] | 341 | 59.4
CCN(C)C(=O)c1ccc(-c2ccc3c(n2)Oc2nc(C)ccc2[C@@H]3C(C)(C)C(=O)Nc2nnc(C(=O)NCC(F)(F)F)s2)cc1 [Example 87] | 574 | 51.7
CCN(C)C(=O)c1ccc(-c2ccc3c(n2)Oc2nc(C)ccc2[C@@H]3C(C)(C)C(=O)Nc2nncs2)cc1 [Example 22] | 81.9 | 59.3
Cc1ccc2c(n1)Oc1nc(-c3ccc(C(=O)N4CCC(F)(F)C4)cc3)ccc1[C@H]2C(C)(C)C(=O)Nc1nncs1 [Example 40] | 539 | 43.3
Cc1ccc2c(n1)Oc1nc(-c3ccc(C(=O)N(C)C)cc3)ccc1[C@H]2C(C)(C)C(=O)Nc1ncns1 [Example 13] | 233 | 38.1
CCC(=O)c1ccc(-c2ccc3c(n2)Oc2nc(C)ccc2[C@@H]3C(C)(C)C(=O)Nc2nncs2)cc1 [Example 76] | 119 | 48.5
CCOC(=O)c1nnc(NC(=O)C(C)(C)[C@H]2c3ccc(C)nc3Oc3nc(-c4ccc(C(=O)N(C)CC)cc4)ccc32)s1 [Example 32] | 176 | 74.3
CCN(C)C(=O)c1ccc(-c2ccc3c(n2)Oc2ncccc2C3C(C)(C)C(=O)Nc2nncs2)cc1 (single isomer, unassigned) [Example 9] | 66.2 | 55.4
Cc1ccc2c(n1)Oc1nc(N(C)C)ccc1C2C(C)(C)C(=O)Nc1nncs1 (centres unmarked) [Example 20, 2-(2-(dimethylamino)-8-methyl-5H-pyrido[3′,2′:5,6]pyrano[2,3-b]pyridin-5-yl)-2-methyl-N-1,3,4-thiadiazol-2-ylpropanamide] | 198 | 27.9
Cc1nnc(NC(=O)C(C)(C)C2c3ccc(Cl)nc3Oc3nc(-c4ccc(C(=O)N5CCOCC5)cc4)ccc32)s1 (centres unmarked) [Example 61] | 47.5 | 49.8
CN(C)C(=O)c1ccc(-c2ccc3c(n2)Oc2nc(C#N)ccc2C3C(C)(C)C(=O)Nc2nncs2)cc1 (centres unmarked) [Example 66, 4-(8-cyano-5-(1,1-dimethyl-2-oxo-2-(1,3,4-thiadiazol-2-ylamino)ethyl)-5H-pyrido[3′,2′:5,6]pyrano[2,3-b]pyridin-2-yl)-N,N-dimethylbenzamide] | 335 | 38.9
Cc1ccc2c(n1)Oc1nc(-c3ccc(C(=O)N(C)C)cc3)ccc1C2C(C)(C)C(=O)Nc1nncs1 (centres unmarked) [Example 10, 4-(5-(1,1-dimethyl-2-oxo-2-(1,3,4-thiadiazol-2-ylamino)ethyl)-8-methyl-5H-pyrido[3′,2′:5,6]pyrano[2,3-b]pyridin-2-yl)-N,N-dimethylbenzamide] | 189 | 39
Cc1ccc2c(n1)Oc1nc(-c3ccc(C(=O)N(C)C4CC4)cc3)ccc1[C@H]2C(C)(C)C(=O)Nc1nncs1 [Example 41] | 359 | 39.2
CCN(C)C(=O)c1ccc(-c2ccc3c(n2)Oc2nc(C)ccc2[C@@H]3C(C)(C)C(=O)Nc2nnc(C(=O)NC3CCC3)s2)cc1 [Example 49] | 98 | 66.3
Cc1ccc2c(n1)Oc1nc(-c3ccc(SC(C)C)cc3)ccc1[C@H]2C(C)(C)C(=O)Nc1nncs1 [Example 27] | 41.9 | 32.4
Cc1ccc2c(n1)Oc1nc(-c3ccc(C(=O)N4CCCC4)cc3)ccc1[C@H]2C(C)(C)C(=O)Nc1nncs1 [Example 31] | 376 | 49.3
CCN(C)C(=O)c1ccc(-c2ccc3c(n2)Oc2nc(C)ccc2C3C(C)(C)C(=O)Nc2nncs2)cc1 (centres unmarked) [Example 14, 4-(5-(1,1-dimethyl-2-oxo-2-(1,3,4-thiadiazol-2-ylamino)ethyl)-8-methyl-5H-pyrido[3′,2′:5,6]pyrano[2,3-b]pyridin-2-yl)-N-ethyl-N-methylbenzamide] | 97.2 | 58
CN(C)C(=O)c1ccc(-c2ccc3c(n2)Oc2cnccc2C3C(C)(C)C(=O)Nc2nncs2)cc1 (centres unmarked) [Example 1, 4-(5-(1,1-dimethyl-2-oxo-2-(1,3,4-thiadiazol-2-ylamino)ethyl)-5H-pyrido[4′,3′:5,6]pyrano[2,3-b]pyridin-2-yl)-N,N-dimethylbenzamide] | 255 | 29.3
CCN(C)C(=O)c1ccc(-c2ccc3c(n2)Oc2nc(N(C)C)ccc2C3C(C)(C)C(=O)Nc2nnc(C)s2)cc1 (centres unmarked) [Example 71] | 67.2 | 48.6

Compound | EC50 [nM] | Emax [%]
Cc1nnc(NC(=O)C(C)(C)C2c3ccc(-c4ccc(C(=O)N(C)C)cc4)nc3Oc3nc(N(C)C)ccc32)s1 (centres unmarked) [Example 68, 4-(8-(dimethylamino)-5-(1,1-dimethyl-2-((5-methyl-1,3,4-thiadiazol-2-yl)amino)-2-oxoethyl)-5H-pyrido[3′,2′:5,6]pyrano[2,3-b]pyridin-2-yl)-N,N-dimethylbenzamide] | 95.3 | 46.3
CCN(C)C(=O)c1ccc(-c2ccc3c(n2)Oc2nc(C)ccc2[C@@H]3C(C)(C)C(=O)Nc2nnc(C)s2)cc1 [Example 35] | 175 | 45
CCN(C)C(=O)c1ccc(-c2ccc3c(n2)Oc2nc(C)ccc2[C@@H]3C(C)(C)C(=O)Nc2nnc(C(=O)NC3CC3)s2)cc1 [Example 44] | 589 | 60.8
Cc1ccc2c(n1)Oc1nc(-c3ccc([S+]([O-])C(C)C)cc3)ccc1C2C(C)(C)C(=O)Nc1nncs1 (stereo in doubt) [Example 82, 2-((5S)-2-(4-(isopropylsulfinyl)phenyl)-8-methyl-5H-pyrido[3′,2′:5,6]pyrano[2,3-b]pyridin-5-yl)-2-methyl-N-1,3,4-thiadiazol-2-ylpropanamide] | 181 | 34.4
Cc1ccc2c(n1)Oc1nc(-c3ccc(C(=O)N(C)C)cc3)ccc1[C@H]2C(C)(C)C(=O)Nc1nnc(C)s1 [Example 12] | 297 | 26.6
CCN(C)C(=O)c1ccc(-c2ccc3c(n2)Oc2nc(Cl)ccc2C3C(C)(C)C(=O)Nc2nnc(C)s2)cc1 (centres unmarked) [Example 58, 4-(8-chloro-5-(1,1-dimethyl-2-((5-methyl-1,3,4-thiadiazol-2-yl)amino)-2-oxoethyl)-5H-pyrido[3′,2′:5,6]pyrano[2,3-b]pyridin-2-yl)-N-ethyl-N-methylbenzamide] | 58.1 | 57.7
CCN(C)C(=O)c1ccc(-c2ccc3c(n2)Oc2ncccc2C3C(C)(C)C(=O)Nc2nncs2)cc1 (centres unmarked) [Example 4] | 197 | 46.6
CN(C)C(=O)c1ccc(-c2ccc3c(n2)Oc2nc(Cl)ccc2C3C(C)(C)C(=O)Nc2nncs2)cc1 (centres unmarked) [Example 54, 4-(8-chloro-5-(1,1-dimethyl-2-oxo-2-(1,3,4-thiadiazol-2-ylamino)ethyl)-5H-pyrido[3′,2′:5,6]pyrano[2,3-b]pyridin-2-yl)-N,N-dimethylbenzamide] | 33.8 | 59.2
Cc1ccc2c(n1)Oc1nc(-c3ccc(C(=O)N(C)C)cc3)ccc1[C@H]2C(C)(C)C(=O)Nc1nnn(C)n1 [Example 94] | 790 | 35.9
Cc1ccc2c(n1)Oc1nc(-c3ccc(C(=O)N4CCOCC4)c(F)c3)ccc1[C@H]2C(C)(C)C(=O)Nc1nncs1 [Example 42] | 228 | 43.6
Cc1ccc2c(n1)Oc1nc(-c3ccc(C(=O)N4CCC4)cc3)ccc1[C@H]2C(C)(C)C(=O)Nc1nncs1 [Example 38] | 470 | 41.9
Cc1nnc(NC(=O)C(C)(C)C2c3ccc(Cl)nc3Oc3nc(-c4ccc(C(=O)N(C)C)cc4)ccc32)s1 (centres unmarked) [Example 56] | 70.6 | 45.9
Cc1ccc2c(n1)Oc1nc(-c3ccc(C(C)(C)O)cc3)ccc1[C@H]2C(C)(C)C(=O)Nc1nncs1 [Example 89] | 21 | 46.9
CC(C)Sc1ccc2c(n1)Oc1nc(-c3ccc(C(=O)N(C)C)cc3)ccc1C2C(C)(C)C(=O)Nc1nncs1 (centres unmarked) [Example 55] | 354 | 30.5
Cc1ccc2c(n1)Oc1nc(-c3ccc(C(=O)N4CCOCC4)cc3)ccc1[C@H]2C(C)(C)C(=O)Nc1nnc(C2CC2)s1 [Example 93, N-(5-cyclopropyl-1,3,4-thiadiazol-2-yl)-2-methyl-2-((5 S)-2-methyl-8-(4-(4-morpholinylcarbonyl)phenyl)-5H-pyrido[3′,2′:5,6]pyrano[2,3-b]pyridin-5-yl)propanamide] | 167 | 44.3
Cc1ccc2c(n1)Oc1nc(-c3ccc(C(=O)N4CCOCC4)cc3)ccc1C2C(C)(C)C(=O)Nc1nncs1 (centres unmarked) [Example 15] | 460 | 47.4
Cc1ccc2c(n1)Oc1nc(-c3ccc(C(=O)N(C)C)cc3)ccc1[C@H]2C(C)(C)C(=O)Nc1nncs1 [Example 11] | 90.1 | 45.2
CN(C)C(=O)c1ccc(-c2ccc3c(n2)Oc2ncccc2C3C(C)(C)C(=O)Nc2nncs2)cc1 (centres unmarked) [Example 3, 4-(5-(1,1-dimethyl-2-oxo-2-(1,3,4-thiadiazol-2-ylamino)ethyl)-5H-pyrido[3′,2′:5,6]pyrano[2,3-b]pyridin-2-yl)-N,N-dimethylbenzamide] | 189 | 38.6
CN(C)C(=O)c1ccc(-c2ccc3c(n2)Oc2ncccc2C3C(C)(C)C(=O)Nc2nncs2)cc1 (single isomer, unassigned) [Example 8] | 194 | 45.2
CC(C)(C(=O)Nc1nncs1)C1c2cccnc2Oc2nc(-c3ccc(C(=O)N4CCOCC4)cc3)ccc21 (centres unmarked) [Example 5] | 142 | 33.9
